Assay [1] has as its system TCR clustering in wild type (Mgat5+/+) T cells. Description: TCR clustering at anti-CD3ε antibody-coated beads after disaccharide pre-incubation. It counts as cell-based, mouse. The settings on record: for Enhanced TCR clustering observed (cells with clustering / cells examined): Mgat5+/+ T cells pre-incubated 20 min with 2 mM disaccharide, then anti-CD3ε antibody-coated beads 10 min, stained for TCR; for Effect on TCR clustering at the bead interface: wild type ex vivo T cells, 20 min disaccharide pre-incubation, 10 min anti-CD3ε bead stimulation. The protocol:
TCR clustering: Six-micron polystyrene beads (Polysciences) in PBS were coated with hamster anti-mouse CD3ε antibody (Clone 2C11; Cederlane) at 2 μg/ml antibody followed by coating with 200 μg/ml bovine serum albumin (BSA). To measure TCR clustering, 5×10^4 T cells were incubated with 2.5×10^5 anti-CD3ε antibody-coated beads in 100 μl RPMI 1640+10% FCS at 37° C. for 10 minutes placed on poly-L-lysine coated cover slips. The cells were fixed with 10% formalin, stained with 2 μg/ml fluorescein isothiocyanate (FITC) labeled anti-TCRα/β antibody (Pharmigen), solubilized with 0.2% Triton X-100, labelled with rhodamine-phalloidin and Hoechst, and then visualized by deconvolution microscopy. […] To measure TCR internalization, purified splenic T cells stimulated with either 0.1 μg/ml^−1 anti-CD3 antibody or with 10 ng/ml PMA for varying lengths of time were harvested and stained with FITC-anti-TCRα/β. PMA concentrations were not limiting as 10, 50 and 100 ng/ml produced similar internalization and cell activation results. To measure actin reorganization, purified splenic T cells, stimulated with 0.1 μg/ml^−1 anti-CD3 for varying lengths of time, were fixed with 4% paraformaldehyde for 10 minutes, washed with PBS and stained with rhodamine-phalloidin and mean fluorescence intensity (MFI) was determined by FACS.

In assay [2] the test system is protein tyrosine phosphorylation in T cells. Put plainly: TCR signaling: phosphotyrosine Western blot after anti-CD3ε bead stimulation. The format is cell-based, mouse. The settings on record: for Protein phosphorylation induced by anti-CD3ε antibody coated beads: Mgat5+/+ T cells, disaccharide 1/3 serial dilution from 2.4 mM, 1 min stimulation. In general terms: A western blot detects proteins with antibodies after separation by electrophoresis.

A further assay concerns the target Galectins. To be noted: range; 8; read-out: Dissociation constant for galectin binding; cited from earlier work.
For another assay, the system named is EAE. To be noted: injected into mice; cited from earlier work.
The next assay deals with T cell proliferation. The settings on record: depletion of Mgat5 modified glycans; cited from earlier work.

Entries after “also recorded” stand apart in the source; their conditions may differ.

Take `OC[C@H]1O[C@@H](O[C@H]2[C@H](O)[C@@H](O)C(O)O[C@@H]2CO)[C@H](O)[C@@H](O)[C@H]1O` (stereo partly shown) [lactose]: in assay [1], the “Enhanced TCR clustering observed (cells with clustering / cells examined)” value was 9/10 and the “Effect on TCR clustering at the bead interface” value is “increased TCR clustering at the bead interface; also recorded: produced a phenocopy of Mgat5^−/− TCR clustering”. For the same molecule, the “Protein phosphorylation induced by anti-CD3ε antibody coated beads” value (“Protein phosphorylation induced” below) in assay [2] is “enhanced protein phosphorylation”. In assay [2] (Mgat5−/− T cells, data not shown), the “Signaling in Mgat5−/− T cells” value was “did not enhance signaling”. Also, the Kd at Galectins is about 100 µM.

As for “galectin-1: exogenously added beta-galactoside-binding lectin”, the “Effect on pathology of EAE” value in the assay on EAE is “suppresses the pathology of EAE”.

As to `OC[C@H]1O[C@H](O[C@H]2[C@H](O)[C@@H](O)[C@H](O)O[C@@H]2CO)[C@H](O)[C@@H](O)[C@@H]1O` [maltose], in assay [2], the “Protein phosphorylation induced” value is “no effect”.

With `OC[C@H]1O[C@@](CO)(O[C@H]2O[C@H](CO)[C@@H](O)[C@H](O)[C@H]2O)[C@@H](O)[C@@H]1O` [sucrose], in assay [1], the “Enhanced TCR clustering observed (cells with clustering / cells examined)” value was 1/10 and the “Effect on TCR clustering at the bead interface” value is reported as “not altered”. Also, the “Protein phosphorylation induced” value in assay [2] is “no effect”.

With `O[C@H]1[C@H]2[C@H](O)CCCN2C[C@H]1O` [swainsonine], the “Effect on antigen-dependent T cell proliferation” value in the assay with T cell proliferation is on record as “potentiates antigen-dependent T cell proliferation”.

On to `N[C@H]1C(O)O[C@H](CO)[C@@H](O[C@@H]2O[C@H](CO)[C@H](O)[C@H](O)[C@H]2O)[C@@H]1O` (stereo partly shown) [Lactosamine], for which the “Protein phosphorylation induced” value in assay [2] was “enhanced protein phosphorylation”. The Kd on Galectins is about 100 µM.
